Data as given in US5736517A, “Treatment of cancer with peptides” (Biomeasure, Inc., priority 1993, dated 1998).
Where a SMILES comes first, the peptide text is derived from it. [ ]: non-standard residue; d: D form. The star is where a group is joined. X1 = CC(C)C[C@@H](CN[C@@H](CC(C)C)C(N)=O)N*; pGlu = O=C1CC[C@@H](C(=O)O)N1

Experiments:
[1] = target: T1, bombesin receptors of normal mouse colon mucosal membranes (Mus musculus, UniProt P21729); assay: 125I-GRP binding to normal mouse colon mucosal membranes; conditions: 20 pM 125I-GRP
T1 construct: from tissue; host or cells: normal mouse colon mucosa (membranes)
Procedure: (§1) For both FIGS. 1 and 2, aliquots of tumor membranes (150 μg protein) were incubated with 20 pM of ^125 I-GRP in the presence of increasing concentrations of peptides, and the displacement of specifically bound ^125 I-GRP to MC-26 tumor membranes by increasing concentrations of peptides is presented as a percent of maximum specific binding of ^125 I-GRP. Each data point is the mean of two observations within an experiment, and represents two experiments. Table 1 presents the IC50 for ^125 I-GRP binding to mouse colon cancer (MC-26) cells and normal colon mucosal cells in the presence of bombesin receptor antagonists. The data in Table 1 was calculated from FIGS. 1 and 2. The fold difference is relative to bombesin (BBS) values.

[2] = target: T2, bombesin receptors of mouse colon cancer (MC-26) cells (Mus musculus, UniProt P21729); assay: 125I-GRP binding to MC-26 tumor membranes; conditions: 20 pM 125I-GRP
T2 construct: endogenous in cells; host or cells: MC-26 mouse colon carcinoma (tumour membranes)
Procedure: The bombesin analog BIM-26147 was tested for the ability to inhibit growth of the mouse colon tumor MC-26.
as §1

CX-5 human colon tumor = assay: CX-5 human colon tumor, 11-day subrenal capsule assay (SRCA); assay type: in vivo; conditions: tumor-bearing athymic nude mice, both CX-5 tests (Tables 2 and 3)
Text: The human colon tumor used for testing was the CX-5 tumor, which was surgically removed from a human and carried as an implant in athymic nude mice. The patient had been untreated prior to surgical removal of the tissue specimen. […] CX-5 was a moderately well-differentiated, mucin secreting adenocarcinoma. The tumor is arranged in acini lined by one or more layers of lining cells which have round to oval vesicular nuclei containing prominent nucleoli. There are frequent mitoses, and the cells have eosinophilic cytoplasm. The acini contain abundant amounts of mucin.
We briefly describe subrenal capsule assay as follows. Tumors, 6-15 mm in diameter, were removed from the athymic mice and immediately placed in RPMI medium (Gibco, Grand Island, N.Y.) at room temperature. In the case of the larger tumors (over 10 mm in diameter), where the central parts frequently contained necrotic tissue, viable tissue was dissected out and placed in a separate Petri dish. The tissue pieces, while immersed in the medium, were cut with scalpels into cubes of approximately 1 mm.
Nude mice were anesthetized by i.p. injection of chloral hydrate (0.35-0.45 ml of a 0.22M solution). A shallow incision was made in the left flank and the kidney was exteriorized. […] Immediately after implantation,the tumor size was measured as described below. […]

T1 sequence (P21729 whole entry): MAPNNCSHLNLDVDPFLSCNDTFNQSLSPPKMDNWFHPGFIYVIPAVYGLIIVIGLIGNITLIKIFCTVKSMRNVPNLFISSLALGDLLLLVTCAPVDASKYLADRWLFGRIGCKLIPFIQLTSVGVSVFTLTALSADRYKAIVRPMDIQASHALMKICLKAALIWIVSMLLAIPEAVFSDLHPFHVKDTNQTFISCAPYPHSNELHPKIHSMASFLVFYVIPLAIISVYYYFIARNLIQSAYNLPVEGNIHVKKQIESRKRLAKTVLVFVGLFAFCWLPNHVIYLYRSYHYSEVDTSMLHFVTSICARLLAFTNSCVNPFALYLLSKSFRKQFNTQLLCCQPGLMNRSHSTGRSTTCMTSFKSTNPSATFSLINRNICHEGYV
T2 sequence (P21729 whole entry): as above

Row | SMILES | IC50 [1] | IC50 [2] | effect on body weight (CX-5 human colon tumor)
1 | CCCNC(=O)[C@H](CC(C)C)NC(=O)[C@H](Cc1cnc[nH]1)NC(=O)CNC(=O)[C@@H](NC(=O)[C@H](C)NC(=O)[C@H](Cc1c[nH]c2ccccc12)NC(=O)[C@H](CCC(N)=O)NC(=O)[C@H](N)Cc1ccccc1)C(C)C [BIM-26147, D-Phe-Gln-Trp-Ala-Val-Gly-His-Leu-propylamide] | 1.6 nM | 4.5 nM | –
2 | CC(C)C[C@@H](CN[C@@H](Cc1ccccc1)C(N)=O)NC(=O)[C@H](Cc1c[nH]cn1)NC(=O)CNC(=O)[C@@H](NC(=O)[C@H](C)NC(=O)[C@H](Cc1c[nH]c2ccccc12)NC(=O)[C@H](CCC(N)=O)NC(=O)[C@H](N)Cc1ccc(Cl)cc1)C(C)C [BIM-26159, D-Cpa-Gln-Trp-Ala-Val-Gly-His-Leu.psi.[CH2 NH]Phe-NH2] | – | – | no measurable effect on body weight
3 | CC(C)C[C@@H](CN[C@@H](CC(C)C)C(N)=O)NC(=O)[C@H](Cc1cnc[nH]1)NC(=O)CNC(=O)[C@@H](NC(=O)[C@H](C)NC(=O)[C@H](Cc1c[nH]c2ccccc12)NC(=O)[C@H](CCC(N)=O)NC(=O)[C@H](CC(N)=O)NC(=O)CNC(=O)[C@H](CC(C)C)NC(=O)[C@H](CCCN=C(N)N)NC(=O)[C@H](CCC(N)=O)NC(=O)[C@@H]1CCC(=O)N1)C(C)C [Leu^13 --.psi.(CH2,NH)--Leu^14 --BBS, Leu^13 .psi.[CH2 NH]Leu^14 bombesin] ([pGlu]QRLGNQWAVGH-X1) | 15 nM | 80 nM | –
